# Results published in patent US20100120662A1, “Glucose uptake modulator and method for treating diabetes or diabetic complications” (POSTECH Foundation, priority 2005, published 2010).
# Ends that are not written are not given here.
# Key:
# 3T3-L1 adipocytes = experiment: [14C] 2-deoxy-D-glucose uptake in 3T3-L1 adipocytes; assay type: cell-based; conditions: for effect of pretreatment on LPC-stimulated glucose uptake: then 20 μM LPC 10 min; for stimulation of glucose uptake: equimolar 20 μM, 10 min; for time and dose dependence of glucose uptake: various concentrations
# Procedure: Cell culture: 3T3-L1 fibroblasts were grown to confluence in DMEM containing a high glucose concentration, 10% fetal bovine serum, 50 U of penicillin per ml, and 50 ug of streptomycin per ml and maintained in a 5% CO2 humidified atmosphere at 37° C. 3T3-L1 was induced to differentiate into adipocytes, as described previously (van den Berghe, N., et al., Mol Cell Biol 14, pp. 2372-2377, 1994).
# Glucose uptake measurement. For measuring glucose uptake in 3T3-L1 adipocytes, cells were grown in serum-free DMEM for 16 h and then incubated in the absence or presence of insulin or lysophospholipids for the indicated times at 37° C. Uptake was measured by adding 1 μCi of [^14C] 2-deoxy-D-glucose and 3 mM 2-deoxy-D-glucose. After 10 min, the assay was terminated by two quick washes with ice-cold PBS. Cells were lysed in 0:5 ml of lysis buffer containing 0.5 N NaOH and 0.1% SDS. The cell lysates were used for liquid scintillation counting and nonspecific uptake was assayed in the presence of 10 μM cytochalasin B (van den Berghe, N., et al., Mol Cell Biol 14, pp. 2372-2377, 1994).
# FIG. 2A to 2D show the effects of LPC on the glucose uptake in 3T3-L1 adipocytes. […] After these treatments, [^14C] 2-deoxy-D-glucose uptake was measured for 10 min as described in Material Methods. […] FIGS. 2C and 2D show relative [^14C] 2-deoxy-D-glucose uptake in 3T3-L1 adipocytes incubated in the absence (control) or presence of equimolar concentrations (20 μM) of myristoyl lysophosphatidylcholine (14:0 LPC), palmytoyl lysophosphatidylcholine (16:0 LPC), stearoyl lysophosphatidylcholine (18:0 LPC), palmytoyl lysophsophatidylethanolamine (16:0 LPE), palmytoyl lyso-phosphatidylinositol (16:0 LPI), palmytoyl lysophosphatidylglycerol (16:0 LPG) for 10 min. Values are mean±SE of three independent experiments performed in triplicate. *P<0.05 vs. basal.
# male ICR mice [1] = experiment: Acute blood glucose lowering in normal ICR mice after intravenous lysophospholipid; assay type: in vivo, mouse; conditions: for level of blood glucose in normal mice: intravenous, 0 to 120 min after dosing
# insulin receptor (IR) = experiment: IR autophosphorylation in hIRcB cells; assay type: cell-based, human; conditions: hIRcB cells
# Procedure: FIG. 12A shown a comparison of insulin sensitizing effect among CRF family which was obtained by incubating cells with 1 μM CRF family and/or 2 nM insulin or with medium alone for 1 min. […] FIG. 12B was obtained by incubating cells with 2 nM insulin and variant dose of UCN (from 2 nM to 1 μM) for 1 min. FIG. 12C was obtained by incubating cells 100 nM UCN and variant dose of insulin for 1 min. Phosphorlyation of IR was assessed by western blotting with anti-pTyr antibodies. FIG. 13D was obtained by incubating cells with 100 nM UCN and/or 10 nM insulin for 0, 2, 10, 30, and 60 min, and then assessing the phosphorlyation of IR by western blotting with anti-pIR antibodies. Quantization of IR autophosphorylation was measured with image gauge software (Fuji film). The values are the mean±S.E. for three experiments. *, P<0.05
# hIRcB cells were maintained in DMEM, supplemented with 10% (v/v) FBS. The cells were grown at 37° C. in a humidified atmosphere of 5% CO2 and 95% air.
# After treatment of ligands as indicated time and dose, the cells were washed with cold PBS and lysed with lysis buffer (50 mM HEPES pH 7.5, 150 mM NaCl, 1%
# Triton X-100, 1 mM EDTA, 10% glycerol) containing protease inhibitors (0.5 mM PMSF, 1 μg/ml leupeptin and 5 μg/ml aprotinin) and phosphatase inhibitors (30 mM NaF, 1 mM Na3VO4 and 30 mM Na4O7P2). The cell lysates were incubated for 1 hr at 4° C. After centrifugation (14,000×g for 15 min), equal amounts of soluble extract were incubated, for 4 hrs, with 5 μg of anti-IR antibody and 30 μl of resin volume of immobilized protein A. For gel electrophoresis, the precipitates were dissolved in Laemmli sample buffer. The sample was separated by SDS-PAGE and transferred to a nitrocellulose membrane (Schleicher and Schuell, BA85). Blocking was performed with TTBS buffer (10 mM Tris/HCl, pH 7.5, 150 mM NaCl, and 0.05% Tween 20) containing 5% skimmed milk powder. The membrane was probed with primary for 3 hrs at room temperature. Subsequently the immunoblot was washed and incubated with horseradish peroxidase-linked secondary antibody for 1 hr at room temperature, rinsed four times in TTBS buffer, and developed with horseradish peroxidase-dependent chemiluminescence reagents (Amersham International, United Kingdom).
# GLUT4 = GLUT4 translocation to the plasma membrane in 3T3-L1 adipocytes; assay type: cell-based; conditions: 100 nM insulin, 10 min
# Procedure: Membrane fractionation of adipocytes. For obtaining total membranes (TM) from 3T3-L1 adipocytes, cells were collected into 10 ml of ice-cold HES buffer (250 mM sucrose, 1 mM EDTA, 1 mM phenylmethylsulfonyl fluoride [PMSF], 1 μM pepstatin, 1 μM aprotinin, 1 μM leupeptin, and 20 mM HEPES, pH 7.4) and subsequently homogenized with 30 strokes in a glass Dounce homogenizer at 4° C. After centrifugation at 1,000 g for 5 min at 4° C. to remove unbroken cells, the supernatant was then centrifugated at 212,000 g for 90 min at 4° C. to yield a pellet of total cellular membranes. To obtain the plasma membrane (PM) subcellular fraction from 3T3-L1 adipocytes, differential ultracentrifugation was used as described previously (Perrini, S., et al., Diabetes 53, pp. 41-52, 2004).
# Immunoblotting. For preparing total cell lysates, 3T3-L1 adipocytes were washed with Ca^2+/Mg^2+-free PBS and then lysed in the lysis buffer (50 mM HEPES, pH 7.2, 150 mM NaCl, 50 mM NaF, 1 mM Na3VO4, 10% glycerol, 1% Triton X-100). The lysates were centrifuged at 15,000 rpm for 15 min at 4° C. […]
# FIGS. 3A and 3B show LPC stimulates GLUT4 translocation in 3T3-L1 adipocytes. […] In each experiment, the relative increase or decrease in the integrated density value (IDV) of GLUT4 after stimulation with compounds is calculated. B) Quantitation of relative increases is depicted. […]
# IRS1 and AKT = IRS1 and AKT phosphorylation in 3T3-L1 adipocytes (immunoblot); assay type: cell-based
# Procedure: Immunoblotting. For preparing total cell lysates, 3T3-L1 adipocytes were washed with Ca^2+/Mg^2+-free PBS and then lysed in the lysis buffer (50 mM HEPES, pH 7.2, 150 mM NaCl, 50 mM NaF, 1 mM Na3VO4, 10% glycerol, 1% Triton X-100). The lysates were centrifuged at 15,000 rpm for 15 min at 4° C. The proteins were denatured by boiling in laemmli sample buffer for 5 min at 95° C., separated by SDS-PAGE. SDS-gel was transferred to nitrocellulose membrane using Hoefer wet transfer system. Membranes were blocked in TTBS (20 mM Tris-HCl, pH 7.6, 150 mM NaCl, 0.05% Tween 20) containing 5% skimmed milk powder for 30 min and then incubated with antibodies for 3 hours. After washing membranes several times with TTBS, the blots were incubated with HRP (Horseradish peroxidase)-conjugated goat anti-rabbit for 1 hour. The blots were washed with TTBS and developed by ECL.
# male ICR mice [2] = experiment: Serum insulin level in mice after single intravenous injection; assay type: in vivo, mouse
# Procedure: (§1) Animals. Male ICR mice were purchased from hyochang science (ROK). C57BLKSJ-db/db mice were purchased from SLC (Japan). After intravenous injection of LPC, blood glucose was measured regularly with a portable glucose meter (Gluco-Dr, ROK) after tail snipping. For measurement of serum insulin, blood samples of mice were determined with the insulin-RIA Kit (LINCO, Missouri). Insulin deficient mice were induced in male ICR mice by two consecutive daily intraperitoneal injection of STZ (200 mg/kg) dissolved in sodium citrate (pH 5.5). On the third day after the last STZ injection, acute glucose lowering effect was analyzed after intravenous injection of vehicle, LPC or insulin as described above.
# (§2) Eight-week-old male mice were intravenously injected with PBS, insulin, LPC, or LPE. Blood glucose was monitored after dosing (0 to 120 min). […] All animals had free access to water. Animal care was in accordance with institutional guidelines. All data are shown as means±SE (n=5-6).*P<0.05.
# [3] = tested on: STZ-treated insulin deficient ICR male mice; experiment: Acute glucose lowering in streptozotocin (STZ)-treated insulin deficient ICR mice; assay type: in vivo, mouse; conditions: LPS injected, dose not given
# Procedure: as §1, §2
# [4] = 3T3-L1 adipocytes, 10 min incubation
molecule,measurement,setting,value
"Cn1c2ccccc2c2c3c(c4c5ccccc5n(CCC#N)c4c21)CNC3=O [Gö6976, reference compound]",effect of pretreatment on LPC-stimulated glucose uptake,3T3-L1 adipocytes; 2 μM Gö6976 for 30 min,did not alter LPC stimulation of glucose uptake
"Cc1noc(-c2ccc(CSCCC(=O)O)cc2)c1NC(=O)OC(C)c1ccccc1Cl (stereo not shown) [Ki16425, reference compound]",effect on the glucose lowering effect by LPA,male ICR mice [1]; Ki16425 injected prior to administration of LPA,inhibited
same,effect of pretreatment on LPA-stimulated glucose uptake,3T3-L1 adipocytes; Ki16425 (LPA receptor antagonist) pretreatment,completely inhibited
CCCCCCCCCCCCC/C=C/[C@@H](O)[C@@H](N)COP(=O)(O)O [S1P],level of blood glucose in normal mice,"male ICR mice [1]; LPA study (FIG. 11A, 11B)",did not lower the blood glucose level in normal mice
same,level of blood glucose in normal mice,"male ICR mice [1]; LPS study (FIG. 7A, 7B)",did not lower the blood glucose level in normal mice
"CCCCCCCCCCCCCC(=O)OCC(O)COP(=O)([O-])OCC[N+](C)(C)C (stereo not shown) [myristoyl LPC, myristoyl lysophosphatidylcholine]",stimulation of glucose uptake,3T3-L1 adipocytes,stimulated glucose uptake
"CCCCCCCCCCCCCCCC(=O)OC[C@@H](O)COP(=O)(O)OCCN [palmytoyl LPE, palmytoyl lysophsophatidylethanolamine]",level of blood glucose in normal mice,"male ICR mice [1]; LPA study (FIG. 11A, 11B)",did not lower the blood glucose level in normal mice
same,level of blood glucose in normal mice,"male ICR mice [1]; LPS study (FIG. 7A, 7B)",did not lower the blood glucose level in normal mice
same,stimulation of glucose uptake,3T3-L1 adipocytes,did not stimulate glucose uptake
"CCCCCCCCCCCCCCCC(=O)OC[C@@H](O)COP(=O)(O)OCC(O)CO (stereo partly shown) [palmytoyl LPG, palmytoyl lysophosphatidylglycerol, reference compound]",stimulation of glucose uptake,3T3-L1 adipocytes,did not stimulate glucose uptake
"CCCCCCCCCCCCCCCC(=O)OCC(O)COP(=O)(O)OC1C(O)C(O)C(O)C(O)C1O (stereo not shown) [palmytoyl LPI, palmytoyl lyso-phosphatidylinositol, reference compound]",stimulation of glucose uptake,3T3-L1 adipocytes,did not stimulate glucose uptake
"CC(=O)c1c(O)c(C)c(O)c(Cc2c(O)c3c(c(C(=O)/C=C/c4ccccc4)c2O)OC(C)(C)C=C3)c1O [rottlerin, reference compound]",effect of pretreatment on LPC-stimulated glucose uptake,3T3-L1 adipocytes; 10 μM rottlerin for 30 min,completely inhibited
"CCCCCCCCCCCCCCCCCC(=O)OCC(O)COP(=O)([O-])OCC[N+](C)(C)C (stereo not shown) [stearoyl LPC, stearoyl lysophosphatidylcholine, reference compound]",stimulation of glucose uptake,3T3-L1 adipocytes,did not stimulate glucose uptake
"CRF: Corticotrophin releasing factor (CRF), synthesized from Anygen (SEEPPISLDLTFHLLREVLEMARAEQLAQQAHSNRKLMEII; ends and bridges not checked; UniProt P06850 154-194, looked up) [reference compound]",insulin-mediated IR phosphorylation,"insulin receptor (IR); 1 μM CRF family peptide with 2 nM insulin, 1 min",potentate insulin-mediated IR phosphorylation
same,IR phosphorylation by peptide alone,insulin receptor (IR); without insulin,no effect on IR phosphorylation
insulin [reference compound],GLUT4 translocation,GLUT4,stimulate GLUT4 translocation
same,phosphorylation of IRS1 and AKT,IRS1 and AKT; 10 nM insulin,augmentation of IRS1 and AKT phosphorylation
lysophosphatidic acid [LPA],level of blood glucose in normal mice,"male ICR mice [1]; LPA study (FIG. 11A, 11B)",lowered the level of blood glucose in normal mice dose-dependently
same,incubation time at which glucose uptake was maximally increased,"3T3-L1 adipocytes; 20 μM, 0 to 20 min",10 min
same,concentration of initial statistically significant effect on glucose uptake,3T3-L1 adipocytes; [4],1 µM
same,concentration of maximal effect on glucose uptake,3T3-L1 adipocytes; [4],20 µM
same,time and dose dependence of glucose uptake,3T3-L1 adipocytes; 3T3-L1 adipocytes,time- and dose-dependent increase in glucose uptake
same,Gαi dependence of glucose uptake stimulation,3T3-L1 adipocytes; Gαi inhibitor pertussis toxin,stimulates glucose uptake via to Gαi activation
same,PI3-kinase dependence of glucose uptake stimulation,3T3-L1 adipocytes; LY294002 pretreatment,dependent on PI3-kinase activation
same,change in blood insulin levels,male ICR mice [2],not due to changes in blood insulin levels
same,Akt phosphorylation,IRS1 and AKT; LPA treatment of 3T3-L1 adipocytes,stimulated Akt phosphorylation
lysophosphatidylserine [LPS],level of blood glucose in normal mice,"male ICR mice [1]; LPS study (FIG. 7A, 7B)",lowered the level of blood glucose in normal mice dose-dependently
same,blood glucose concentrations in STZ-treated insulin deficient mice,[3],significantly reduced blood glucose concentrations
same,time and dose dependence of glucose uptake,3T3-L1 adipocytes; 3T3-L1 adipocytes,stimulate glucose uptake with dose dependent manner
same,stimulation of glucose uptake,3T3-L1 adipocytes,specifically stimulated glucose uptake
same,change in blood insulin levels,male ICR mice [2],not due to changes in blood insulin levels
